Measurements reported in PubChem BioAssay AID248 (DTP/NCI, 2004).
“And” between values parts separate entries of the source, which are not always exact repeats. Identical values can stand only once. Inconclusive results and toxic doses are left out. No stated cut-off is given here; in the data, active means T/C of 150% or more; inactive means T/C below 125%.

Test system: L1210 leukemia ip in BDF1 mice, survival T/C
Test: NCI In Vivo Anticancer Drug Screen. Data for tumor model L1210 Leukemia (intraperitoneal) in B6D2F1 (BDF1) mice
Details: endpoint: mean survival time, higher = longer survival
In short: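 Ratio derived from survival: compound-dosed mice over vehicle-dosed mice, all bearing a transplantable tumor.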

[1] = dose: 100.0 mg/kg/injection, schedule: Q01DX009 (ip), vehicle: Klucel (hydroxypropylcellulose) (HPC)
[2] = dose: 200.0 mg/kg/injection, schedule: Q01DX009 (ip), vehicle: Klucel (hydroxypropylcellulose) (HPC)
[3] = dose: 75.0 mg/kg/injection, schedule: Q01DX001 (ip), vehicle: saline
[4] = dose: 100.0 mg/kg/injection, schedule: Q01DX001 (ip), vehicle: saline
[5] = dose: 200.0 mg/kg/injection, schedule: Q01DX001 (ip), vehicle: saline
[6] = dose: 400.0 mg/kg/injection, schedule: Q01DX001 (ip), vehicle: saline
[7] = dose: 100.0 mg/kg/injection, schedule: Q01DX001 (ip), vehicle: carboxymethylcellulose (CMC)
[8] = dose: 200.0 mg/kg/injection, schedule: Q01DX001 (ip), vehicle: carboxymethylcellulose (CMC)
[9] = dose: 100.0 mg/kg/injection, schedule: Q01DX009 (ip), vehicle: saline
[10] = dose: 100.0 mg/kg/injection, schedule: Q04DX003 (ip), vehicle: saline
[11] = dose: 200.0 mg/kg/injection, schedule: Q04DX003 (ip), vehicle: saline
[12] = dose: 400.0 mg/kg/injection, schedule: Q04DX003 (ip), vehicle: saline

Measured: T/C

Cc1c(N=CN(C)C)c(=O)n(-c2ccccc2)n1C
inactive: [1] 94 % of control | dose: 100.0 mg/kg/injection, schedule: Q04DX003 (ip), vehicle: Klucel (hydroxypropylcellulose) (HPC) 110 % of control | [2] 93 % of control | dose: 200.0 mg/kg/injection, schedule: Q04DX003 (ip), vehicle: Klucel (hydroxypropylcellulose) (HPC) 105 % of control | dose: 400.0 mg/kg/injection, schedule: Q01DX009 (ip), vehicle: Klucel (hydroxypropylcellulose) (HPC) 100 % of control | dose: 400.0 mg/kg/injection, schedule: Q04DX003 (ip), vehicle: Klucel (hydroxypropylcellulose) (HPC) 107 % of control

C=CC[N+](C)(C)C
inactive: [3] 101 % of control

CCN1C(=O)CSC1=S
inactive: [4] 101 % of control | dose: 100.0 mg/kg/injection, schedule: Q04DX003 (ip), vehicle: other 92 % of control and 96 % of control | [5] 101 % of control | dose: 200.0 mg/kg/injection, schedule: Q04DX003 (ip), vehicle: other 110 % of control and 89 % of control | [6] 102 % of control | dose: 400.0 mg/kg/injection, schedule: Q04DX003 (ip), vehicle: other 96 % of control

Cc1ccc(CC#N)c(-c2c(CC#N)ccc(C)c2C)c1C
inactive: dose: 100.0 mg/kg/injection, schedule: Q04DX002 (ip), vehicle: gum acacia 87 % of control | dose: 200.0 mg/kg/injection, schedule: Q04DX002 (ip), vehicle: gum acacia 93 % of control | dose: 400.0 mg/kg/injection, schedule: Q04DX002 (ip), vehicle: gum acacia 93 % of control

O=S1(=O)CCCN1c1ccccn1
inactive: dose: 100.0 mg/kg/injection, schedule: Q04DX002 (ip), vehicle: other 104 % of control | dose: 200.0 mg/kg/injection, schedule: Q04DX002 (ip), vehicle: other 89 % of control | dose: 400.0 mg/kg/injection, schedule: Q04DX002 (ip), vehicle: other 96 % of control

CC1(CO)COC(c2ccccc2)=N1 (stereo not given)
inactive: dose: 100.0 mg/kg/injection, schedule: Q01DX009 (ip), vehicle: other 109 % of control | dose: 200.0 mg/kg/injection, schedule: Q01DX009 (ip), vehicle: other 103 % of control | dose: 400.0 mg/kg/injection, schedule: Q01DX009 (ip), vehicle: other 109 % of control

COc1cc(C(=O)Cl)cc(OC)c1OC(C)=O
inactive: [4] 93 % of control | [5] 89 % of control | [6] 91 % of control

CCCCCCC1CCC(N)CC1 (stereo not given)
inactive: dose: 6.25 mg/kg/injection, schedule: Q04DX002 (ip), vehicle: saline with Tween-80 95 % of control | dose: 12.5 mg/kg/injection, schedule: Q04DX002 (ip), vehicle: saline with Tween-80 95 % of control | dose: 25.0 mg/kg/injection, schedule: Q04DX002 (ip), vehicle: saline with Tween-80 113 % of control

CC1=CC(C)(C)NC(=S)N1c1cccc2ccccc12
inactive: dose: 75.0 mg/kg/injection, schedule: Q01DX009 (ip), vehicle: saline with Tween-80 90 % of control | dose: 150.0 mg/kg/injection, schedule: Q01DX009 (ip), vehicle: saline with Tween-80 87 % of control | dose: 224.0 mg/kg/injection, schedule: Q01DX Z (ip), vehicle: methylcellulose (MC) 94 % of control | dose: 300.0 mg/kg/injection, schedule: Q01DX009 (ip), vehicle: saline with Tween-80 88 % of control | dose: 334.0 mg/kg/injection, schedule: Q01DX Z (ip), vehicle: methylcellulose (MC) 86 % of control | dose: 500.0 mg/kg/injection, schedule: Q01DX Z (ip), vehicle: methylcellulose (MC) 88 % of control | dose: 750.0 mg/kg/injection, schedule: Q01DX Z (ip), vehicle: methylcellulose (MC) 102 % of control

CC(=O)Nc1cc2c(cc1Br)-c1ccccc1C2O (stereo not given)
inactive: [7] 98 % of control | dose: 110.0 mg/kg/injection, schedule: Q01DX Z (ip), vehicle: other 98 % of control | dose: 166.0 mg/kg/injection, schedule: Q01DX Z (ip), vehicle: other 101 % of control | [8] 97 % of control | dose: 250.0 mg/kg/injection, schedule: Q01DX Z (ip), vehicle: other 98 % of control | dose: 296.0 mg/kg/injection, schedule: Q01DX Z (ip), vehicle: saline 103 % of control | dose: 444.0 mg/kg/injection, schedule: Q01DX Z (ip), vehicle: saline 105 % of control | dose: 560.0 mg/kg/injection, schedule: Q01DX Z (ip), vehicle: other 103 % of control | dose: 666.0 mg/kg/injection, schedule: Q01DX Z (ip), vehicle: saline 106 % of control

COc1ccc(CC2=NCCc3cc(OC)c(OC)cc32)cc1OC
inactive: [3] 97 % of control | [9] 96 % of control and 90 % of control | [10] 110 % of control and 89 % of control | dose: 150.0 mg/kg/injection, schedule: Q01DX001 (ip), vehicle: saline 100 % of control

CN(C)CCC(O)(c1ccccc1)c1ccccc1Cl (stereo not given)
inactive: [7] 90 % of control | [8] 97 % of control | dose: 400.0 mg/kg/injection, schedule: Q01DX001 (ip), vehicle: carboxymethylcellulose (CMC) 94 % of control

CCOC(=O)c1ccc(NC(=O)Nc2ccc(F)cc2)cc1
inactive: [1] 90 % of control | [2] 90 % of control

O=C(O)Cc1cc2c(cc1[N+](=O)[O-])OCO2
inactive: dose: 50.0 mg/kg/injection, schedule: Q01DX001 (ip), vehicle: saline 103 % of control | [4] 97 % of control | [5] 97 % of control | [6] 103 % of control

OC1COCOC1 (tested in a mixture with another compound)
inactive: [9] 104 % of control | [10] 105 % of control | dose: 200.0 mg/kg/injection, schedule: Q01DX009 (ip), vehicle: saline 104 % of control | [11] 102 % of control | dose: 400.0 mg/kg/injection, schedule: Q01DX009 (ip), vehicle: saline 111 % of control | [12] 109 % of control

CC1(C(=O)O)NC(C(=O)O)CS1 (stereo not given)
inactive: dose: 5.0 mg/kg/injection, schedule: Q01DX001 (ip), vehicle: saline 96 % of control | dose: 10.0 mg/kg/injection, schedule: Q01DX001 (ip), vehicle: saline 108 % of control | dose: 20.0 mg/kg/injection, schedule: Q01DX001 (ip), vehicle: saline 104 % of control | dose: 40.0 mg/kg/injection, schedule: Q01DX001 (ip), vehicle: saline 102 % of control | dose: 80.0 mg/kg/injection, schedule: Q01DX001 (ip), vehicle: saline 98 % of control

CCOC(=O)/C(=C\c1ccccc1)C(=O)c1ccccc1
inactive: [4] 97 % of control | [10] 97 % of control | [5] 93 % of control | [11] 92 % of control | [6] 88 % of control | [12] 101 % of control

CC12C(=O)C(C)(C(c3ccccc3)=C1c1ccccc1)C1C=CN(S(C)(=O)=O)C=CC12 (stereo not given)
inactive: dose: 100.0 mg/kg/injection, schedule: Q04DX002 (ip), vehicle: saline with Tween-80 86 % of control | dose: 200.0 mg/kg/injection, schedule: Q04DX002 (ip), vehicle: saline with Tween-80 88 % of control | dose: 400.0 mg/kg/injection, schedule: Q04DX002 (ip), vehicle: saline with Tween-80 86 % of control

C=CCN1CCC(C(=O)CC)(c2ccccc2)CC1
inactive: dose: 12.5 mg/kg/injection, schedule: Q01DX009 (ip), vehicle: Klucel (hydroxypropylcellulose) (HPC) 100 % of control | dose: 25.0 mg/kg/injection, schedule: Q01DX009 (ip), vehicle: Klucel (hydroxypropylcellulose) (HPC) 98 % of control | dose: 50.0 mg/kg/injection, schedule: Q01DX009 (ip), vehicle: Klucel (hydroxypropylcellulose) (HPC) 106 % of control
